Patent publication US8415380B2 (Hoffmann-La Roche Inc., priority 2007, dated 2013)

Columns and labels:
rat mGlu2 receptor = molecular target: T1, rat mGlu2 receptor (Rattus norvegicus, UniProt P31421); experiment: [3H]-LY354740 binding on mGlu2 transfected CHO cell membranes; details: 10 nM [3H]-LY354740, mGlu2 transfected CHO cell membranes, room temperature, 1 hour
T1 construct: expressed in transfected cells; membranes prepared
From the text: [^3H]-LY354740 Binding on mGlu2 Transfected CHO Cell Membranes Transfection and Cell Culture
cDNA encoding the rat mGlu2 receptor protein in pBluescript II was subcloned into the eukaryotic expression vector pcDNA I-amp from Invitrogen Ltd (Paisley, UK). This vector construct (pcD1mGR^2) was co-transfected with a psvNeo plasmid encoding the gene for neomycin resistance, into CHO cells by a modified calcium phosphate method described by Chen & Okayama (1988). The cells were maintained in Dulbecco's Modified Eagle medium with reduced L-glutamine (1 mM final concentration), 36 mg/L L-Proline and 10% dialysed foetal calf serum from Gibco-Invitrogen; the medium was supplemented with 500 microM α-methyl-4-carboxyphenylglycine (MCPG). Selection was made in the presence of G-418 (300 ug/ml final concentration). Clones were identified by reverse transcription of 5 μg total RNA, followed by PCR using mGlu2 receptor specific primers 5′-[…]-3′ and 5′-[…]-3′ in 60 mM Tris HCl (pH 10), 15 mM (NH4)2SO4, 2 mM MgCl2, 25 units/ml Taq Polymerase with 30 cycles annealing at 60° C. for 1 min., extention at 72° C. for 30 s, and 1 min. 95° C. denaturation.
Cells, cultured as above, were harvested and washed three times with cold PBS and frozen at −80° C. The pellet was resuspended in cold 20 mM HEPES-NaOH buffer containing 10 mM EDTA (pH 7.4), and homogenised with a polytron (Kinematica, A G, Littau, Switzerland) for 10 s at 10 000 rpm. After centrifugation for 30 min. at 4° C., the pellet was washed once with cold 20 mM HEPES-NaOH buffer containing 0.1 mM EDTA, (pH 7.4). After a second centrifugation for 30 min. at 4° C. the pellet was resuspended in cold 20 mM HEPES-NaOH buffer containing 0.1 mM EDTA, (pH 7.4). Protein content was measured using the Micro BCA method from Pierce-Perbio (Rockford, Ill., USA) using bovine serum albumin as standard.
After thawing, the membranes were resuspended in cold 50 mM Tris-HCl buffer containing 2 mM MgCl2 (pH 7.4) (binding buffer). The final concentration of the membranes in the assays was 25 μg protein/ml. Inhibition experiments were performed with membranes incubated with 10 nM [^3H]-LY354740 at room temperature, for 1 hour, in presence of various concentrations of the compound to be tested. Following the incubations, membranes were filtered onto Whatmann GF/B glass fiber filters or onto GF/B Unifilter plates and washed 5 times with cold binding buffer. Non specific binding was measured in the presence of 10 μM (2S,2′R,3′R)-2-(2′3′-Dicarboxycyclopropyl)glycine (DCG IV from Tocris, Ellisville, Mo. USA). After transfer of the filters into plastic vials containing 10 ml of Ultima-gold scintillation fluid from Perkin-Elmer (Boston, Mass., USA), the radioactivity was measured by liquid scintillation in a Tri-Carb 2500 TR counter (Packard, Zurich, Switzerland). For 96-Unifilter plates the radioactivity was measured after addition of Microscint 40 scintillation fluid (Perkin Elmer, Boston Mass.) using a TopCount NXT (Packard)
The inhibition curves were fitted with a four parameter logistic equation giving IC50 values, and Hill coefficients.

T1 sequence (P31421 19-872): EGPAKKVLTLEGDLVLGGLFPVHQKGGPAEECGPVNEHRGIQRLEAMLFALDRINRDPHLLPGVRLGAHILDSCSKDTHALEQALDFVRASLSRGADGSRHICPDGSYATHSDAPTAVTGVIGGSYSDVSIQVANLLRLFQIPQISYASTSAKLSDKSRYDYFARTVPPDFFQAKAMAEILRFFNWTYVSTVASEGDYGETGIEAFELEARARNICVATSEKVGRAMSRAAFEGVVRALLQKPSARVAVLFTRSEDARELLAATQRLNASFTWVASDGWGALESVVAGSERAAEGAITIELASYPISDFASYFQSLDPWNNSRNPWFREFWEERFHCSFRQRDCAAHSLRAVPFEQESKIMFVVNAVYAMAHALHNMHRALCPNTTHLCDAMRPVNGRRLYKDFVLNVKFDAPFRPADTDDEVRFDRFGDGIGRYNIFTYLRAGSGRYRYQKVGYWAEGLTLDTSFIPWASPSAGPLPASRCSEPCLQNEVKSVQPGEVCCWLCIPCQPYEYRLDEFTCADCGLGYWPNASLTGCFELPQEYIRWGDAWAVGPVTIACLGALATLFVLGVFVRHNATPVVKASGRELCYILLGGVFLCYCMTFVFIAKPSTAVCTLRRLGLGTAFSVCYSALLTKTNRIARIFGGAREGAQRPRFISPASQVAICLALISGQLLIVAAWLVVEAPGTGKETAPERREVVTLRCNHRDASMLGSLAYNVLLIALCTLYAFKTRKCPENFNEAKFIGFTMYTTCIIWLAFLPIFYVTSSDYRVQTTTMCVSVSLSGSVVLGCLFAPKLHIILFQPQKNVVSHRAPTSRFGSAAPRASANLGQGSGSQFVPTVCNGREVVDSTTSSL

Row | melting point [°C] | Ki (rat mGlu2 receptor) [nM] | SMILES
1 | 220 | – | Cc1cc(-c2ccc(C(F)(F)F)nc2)nc(-c2cccc(-c3cccc(S(N)(=O)=O)c3)c2)n1 [Example 23, 3′-[4-Methyl-6-(6-trifluoromethyl-pyridin-3-yl)-pyrimidin-2-yl]-biphenyl-3-sulfonic acid amide]
2 | 233 to 234 | 2 | Cc1cc(-c2ccc(C(F)(F)F)nc2)cc(-c2cccc(-c3cccc(S(N)(=O)=O)c3)n2)n1 [Example 30, 3-(6′-Methyl-6″-trifluoromethyl-[2,2′;4′,3″]terpyridin-6-yl)-benzenesulfonamide]
3 | 254 | – | Cc1cc(-c2ccc(C(F)(F)F)nc2)nc(-c2cccc(-c3cccc(S(N)(=O)=O)c3)n2)n1 [Example 28, 3-{6-[4-Methyl-6-(6-trifluoromethyl-pyridin-3-yl)-pyrimidin-2-yl]-pyridin-2-yl}-benzenesulfonamide]
4 | 228 | – | Nc1ncc(-c2cccc(-c3nc(-c4ccc(Cl)s4)cc(C(F)(F)F)n3)c2)cn1 [Example 6, 5-{3-[4-(5-Chloro-thiophen-2-yl)-6-trifluoromethyl-pyrimidin-2-yl]-phenyl}-pyrimidin-2-ylamine]
5 | 189 | 11.6 | NS(=O)(=O)c1cccc(-c2cn(-c3nc(-c4ccc(Cl)s4)cc(C(F)(F)F)n3)cn2)c1 [Example 1, 3-{1-[4-(5-Chloro-thiophen-2-yl)-6-trifluoromethyl-pyrimidin-2-yl]-1H-imidazol-4-yl}-benzenesulfonamide]
6 | 226.5 | 14.3 | NS(=O)(=O)c1cccc(-c2cccc(-c3nc(-c4ccc(Cl)s4)cc(C(F)(F)F)n3)c2)c1 [Example 4, 3′-[4-(5-Chloro-thiophen-2-yl)-6-trifluoromethyl-pyrimidin-2-yl]-biphenyl-3-sulfonic acid amide]
7 | 255 | – | Cc1cc(-c2ccc(C(F)(F)F)nc2)nc(-c2ccnc(-c3cccc(S(N)(=O)=O)c3)c2)n1 [Example 21, 3-{4-[4-Methyl-6-(6-trifluoromethyl-pyridin-3-yl)-pyrimidin-2-yl]-pyridin-2-yl}-benzenesulfonamide]
8 | 258 | 5.3 | NS(=O)(=O)c1cccc(-c2cc(-c3nc(-c4ccc(C(F)(F)F)nc4)cc(C(F)(F)F)n3)ccn2)c1 [Example 9, 3-{4-[4-Trifluoromethyl-6-(6-trifluoromethyl-pyridin-3-yl)-pyrimidin-2-yl]-pyridin-2-yl}-benzenesulfonamide]
9 | 245.5 | – | NS(=O)(=O)c1ccc(-c2cccc(-c3nc(-c4ccc(C(F)(F)F)nc4)cc(C(F)F)n3)c2)s1 [Example 18, 5-{3-[4-Difluoromethyl-6-(6-trifluoromethyl-pyridin-3-yl)-pyrimidin-2-yl]-phenyl}-thiophene-2-sulfonic acid amide]
10 | 227 to 232 | – | Cc1cc(-c2ccc(C(F)(F)F)nc2)cc(-c2cccc(-c3cccc(S(N)(=O)=O)c3)c2)n1 [Example 34, 3′-(6′-Methyl-6-trifluoromethyl-[3,4′]bipyridinyl-2′-yl)-biphenyl-3-sulfonic acid amide]
11 | 264.5 | – | NS(=O)(=O)c1cccc(-c2cc(-c3nc(-c4ccc(C(F)(F)F)nc4)cc(C(F)F)n3)ccn2)c1 [Example 16, 3-{4-[4-Difluoromethyl-6-(6-trifluoromethyl-pyridin-3-yl)-pyrimidin-2-yl]-pyridin-2-yl}-benzenesulfonamide]
12 | 237.5 | – | Cc1cc(-c2ccc(C(F)(F)F)nc2)nc(-c2cccc(-c3ccc(S(N)(=O)=O)s3)c2)n1 [Example 24, 5-{3-[4-Methyl-6-(6-trifluoromethyl-pyridin-3-yl)-pyrimidin-2-yl]-phenyl}-thiophene-2-sulfonic acid amide]
13 | 233 | – | NS(=O)(=O)c1ccc(-c2cccc(-c3nc(-c4ccc(Cl)s4)cc(C(F)(F)F)n3)c2)s1 [Example 7, 5-{3-[4-(5-Chloro-thiophen-2-yl)-6-trifluoromethyl-pyrimidin-2-yl]-phenyl}-thiophene-2-sulfonic acid amide]
14 | 222 | – | NS(=O)(=O)c1cccc(-c2cccc(-c3nc(-c4ccc(C(F)(F)F)nc4)cc(C(F)F)n3)c2)c1 [Example 15, 3′-[4-Difluoromethyl-6-(6-trifluoromethyl-pyridin-3-yl)-pyrimidin-2-yl]-biphenyl-3-sulfonic acid amide]

More lines, now with the values behind:

Row | SMILES | melting point [°C] | Ki (rat mGlu2 receptor) [nM]
15 | NS(=O)(=O)c1cccc(-c2cn(-c3nc(-c4ccc(C(F)(F)F)nc4)cc(C(F)F)n3)cn2)c1 [Example 19, 3-{1-[4-Difluoromethyl-6-(6-trifluoromethyl-pyridin-3-yl)-pyrimidin-2-yl]-1H-imidazol-4-yl}-benzenesulfonamide] | 219.5 | 15
16 | Cc1cc(-c2ccc(C(F)(F)F)nc2)nc(-c2ccnc(-c3ccc(S(N)(=O)=O)s3)c2)n1 [Example 22, 5-{4-[4-Methyl-6-(6-trifluoromethyl-pyridin-3-yl)-pyrimidin-2-yl]-pyridin-2-yl}-thiophene-2-sulfonic acid amide] | 289 | –
17 | Nc1ccc(-c2cn(-c3nc(-c4ccc(C(F)(F)F)nc4)cc(C(F)F)n3)cn2)cn1 [Example 14, 5-{1-[4-Difluoromethyl-6-(6-trifluoromethyl-pyridin-3-yl)-pyrimidin-2-yl]-1H-imidazol-4-yl}-pyridin-2-ylamine] | 258 | –
18 | Nc1ccc(-c2cccc(-c3nc(-c4ccc(C(F)(F)F)nc4)cc(C(F)(F)F)n3)c2)cn1 [Example 12, 5-{3-[4-Trifluoromethyl-6-(6-trifluoromethyl-pyridin-3-yl)-pyrimidin-2-yl]-phenyl}-pyridin-2-ylamine] | 244 | 3.3
19 | Cc1cc(-c2ccc(C(F)(F)F)nc2)cc(-c2cccc(-c3cccc(S(=O)(=O)NC(C)(C)C)c3)n2)n1 [Example 29, N-tert-Butyl-3-(6′-methyl-6″-trifluoromethyl-[2,2′;4′,3″]terpyridin-6-yl)-benzenesulfonamide] | 187 to 188 | 26
20 | NS(=O)(=O)c1ccc(-c2cc(-c3nc(-c4ccc(C(F)(F)F)nc4)cc(C(F)(F)F)n3)ccn2)s1 [Example 10, 5-{4-[4-Trifluoromethyl-6-(6-trifluoromethyl-pyridin-3-yl)-pyrimidin-2-yl]-pyridin-2-yl}-thiophene-2-sulfonic acid amide] | 262.5 | 6.6
21 | NS(=O)(=O)c1ccc(-c2cc(-c3nc(-c4ccc(C(F)(F)F)nc4)cc(C(F)F)n3)ccn2)s1 [Example 17, 5-{4-[4-Difluoromethyl-6-(6-trifluoromethyl-pyridin-3-yl)-pyrimidin-2-yl]-pyridin-2-yl}-thiophene-2-sulfonic acid amide] | 269.5 | 3.5
22 | Cc1cc(-c2ccc(C(F)(F)F)cn2)nc(-c2cccc(-c3cccc(S(=O)(=O)NC(C)(C)C)c3)n2)n1 [Example 25] | – | 105
23 | Cc1cc(-c2ccc(C(F)(F)F)cn2)nc(-c2cccc(-c3cccc(S(N)(=O)=O)c3)n2)n1 [Example 27, 3-{6-[4-Methyl-6-(5-trifluoromethyl-pyridin-2-yl)-pyrimidin-2-yl]-pyridin-2-yl}-benzenesulfonamide] | 246 to 252 | –
24 | CCC(=O)NS(=O)(=O)c1cccc(-c2cc(-c3nc(-c4ccc(C(F)(F)F)nc4)cc(C(F)(F)F)n3)ccn2)c1 [Example 11, N-Propionyl-3-{4-[4-trifluoromethyl-6-(6-trifluoromethyl-pyridin-3-yl)-pyrimidin-2-yl]-pyridin-2-yl}-benzenesulfonamide] | 242 | –
25 | Cc1cc(-c2ccc(C(F)(F)F)nc2)cc(-c2cccc(-c3ccc(S(N)(=O)=O)s3)c2)n1 [Example 35, 5-[3-(6′-Methyl-6-trifluoromethyl-[3,4′]bipyridinyl-2′-yl)-phenyl]-thiophene-2-sulfonic acid amide] | 231 to 233 | –
